In patent US20190359989A1, “FUSION PROTEIN AND APPLICATIONS THEREOF” (CARSGEN THERAPEUTICS CO., LTD., priority 2016, published 2019):
Where a SMILES comes first, the peptide text is derived from it. [ ]: non-standard residue; d: D form. Dolaproine = CO[C@@H]([C@@H]1CCCN1)[C@@H](C)C(=O)O; Dil = CC[C@H](C)[C@H](NC)[C@@H](CC(=O)O)OC; NMeV = CN[C@H](C(=O)O)C(C)C

B1: CH12 antibody (antibody, human IgG1, kappa, V domains shown)
VH: DVQLQESGPGLVKPSQSLSLTCTVTAYSVTSDYAWNWIRQFPGNKLEWMGYISYSGTTRYNPSLKSRISITRDTSKNQFFLQLNSMTAEDTATYYCSRQGRGFPYWGQGTLVTVSA
VL: DILMTQSPSSMSVSLGDTVSITCHASQDINSNIGWLQQKPGKSFKGLIYHGTNLEDGVPSRFSGSGSGADYSLTISSLESEDFADYYCVQYAQFPWTFGGGTKLEIKR
notes: CH12 antibody as disclosed in CN 200810038848.8; detected with goat anti-human IgG

Legend:
FR806-positive T cells = experiment: CCK8 assay for killing FR806-expressing T cells; format: cell-based, human; conditions: CCK8, 72 h, 10-1000 nM
Experimental: Experimental group: T cells expressing eGFP-FR806 after sorted in Example 3 were plated in a 96-well plate at 3×10^4 cells per well in 100 ul of medium, 5 replicate wells per drug concentration, and then a blank group of medium was set. Control group: T cells that were not infected with the virus were taken and plated in a 96-well plate according to the operation of the experimental group. […] After 72 h, 10 ul of CCK8 reagent (Dojindo) was added to each well and incubated at 37° C. for 3 h, and the absorbance was measured at 450 nm by a microplate reader to calculate the cell viability.
According to the above procedure, the sorted T cells infected with eGFP-FR806 were taken and plated in a 96-well plate at 3×10^4 cells per well in 100 ul of culture medium, 5 replicate wells per drug concentration, and then a blank group of medium was set. The control group was uninfected T cells, which were plated in a 96-well plate by the same method. Six concentrations of free MMAFs of 1000 nM, 500 nM, 100 nM, 50 nM, 10 nM and 0 nM were added to T cells at specific concentrations to prepare six gradients (i.e., the aforementioned six concentrations). After 72 h, 10 ul of CCK8 reagent (Dojindo) was added to each well for 3 h at 37° C., and the absorbance was measured at 450 nm by a microplate reader to calculate the cell viability. […]

FR806-positive HEK293T = experiment: Cell killing experiment on EGFR+ HEK293T cells expressing FR806; format: cell-based
From the text: Moreover, the applicant selected EGFR+ HEK293T cells expressing FR806, and subjected them to cell killing experiments.

FR806-negative HEK293T = experiment: Cell killing experiment on FR806-negative EGFR+ HEK293T cells; format: cell-based
[1] = target: T1, EGFR on Keratinocyte cells and HEK-293T cells (human, UniProt P00533 25-1210); experiment: FACS on Keratinocyte cells and HEK-293T cells expressing EGFR
T1 construct: whole, on cells; also called epidermal growth factor receptor

Molecule	killing levels to T cells expressing and not expressing FR806 (FR806-positive T cells)	killing of FR806-positive HEK293T (FR806-positive HEK293T)	killing of FR806-negative HEK293T (FR806-negative HEK293T)	binding result [1]
CC[C@H](C)[C@@H]([C@@H](CC(=O)N1CCC[C@H]1[C@H](OC)[C@@H](C)C(=O)N[C@@H](Cc1ccccc1)C(=O)O)OC)N(C)C(=O)[C@@H](NC(=O)[C@@H](NC)C(C)C)C(C)C [Free MMAF, MMAF] (H-[NMeV]V[Dil][Dolaproine]F-OH)	comparable	killed	killed	
B1				no binding
